Tested on: Wnt/β-catenin cell signalling pathway (downstream target gene Axin2)
Test: Axin2 expression (qPCR) in cells in medium conditioned with particles
Type: cell-based
Settings: 25 mM LiCl, 17IA4 cells
Method: Biological activity of released lithium was measured by monitoring activation of Wnt/β-catenin cell signalling pathway by measuring the expression of the pathway's well-known downstream target gene Axin2. The experiment was done with cell medium conditioned with corresponding batch of nanoparticles. Known amounts of LipSi nanoparticles were pelleted with a centrifuge and sterile supernatant was removed. Nanoparticles were dried under tissue culture hood. Cell medium (αMEM supplemented with 10% FBS, 1% antibiotic/antimycotic solution and 25 mM HEPES) was added onto pellet and particles were redispersed with ultrasound. Concentrations of the particles were 0.8 mg/ml (FIG. 6a) and 1.6 mg/ml (FIG. 6b). Vials were incubated in thermoshaker at 37° C. for four days. Particles were centrifuged down and supernatant was collected under sterile conditions. Conditioned medium (supernatant) was filtered with 0.22 μm syringe filter.
20,000 cells/cm^2 of mesenchymal cells (17IA4) were seeded onto 24 well plate. Cells were incubated approximately for 24 hours until 80% confluent and the normal medium was changed to conditioned. Cells were incubated (37° C., 5% CO2) in conditioned medium for 24 h. […] Reported fold changes represent Axin2 expression in the sample compared to Axin2 expression in medium and they are calculated with ΔΔCt method as known in the art.

## [Cl-].[Li+] [LiCl, lithium chloride]
Experiment of FIG. 6a (with SS9)
  increase of Axin2 expression compared to medium: 3.2 fold
Experiment of FIG. 6b (with SS19)
  increase of Axin2 expression compared to medium: 2.6 fold

From patent US20230286816A1, “LITHIATED SILICON” (KING'S COLLEGE LONDON, priority 2020, published 2023)
